From patent US6683077B2, “2-Amino-benzoxazinones for the treatment of viral infections” (G.D. Searle & Co., priority 1996, dated 2004)
pEC50: −log10 of the molar value.

What was measured:
[1] = test system: HCMV engineered virus RC256; assay: microbe, parasite or virus in culture; format: cell-based, human cytomegalovirus; conditions: Human betaherpesvirus 5, Fibroblast, read-out: Antiviral Activity RC256, first value (EC50)
[2] = target: T1, Human leukocyte elastase (HLE) (Homo sapiens, UniProt P08246); assay: Human leukocyte elastase assay; format: biochemical
T1 construct: gift of R. Senior, Washington University
T1 sequence (P08246 30-267): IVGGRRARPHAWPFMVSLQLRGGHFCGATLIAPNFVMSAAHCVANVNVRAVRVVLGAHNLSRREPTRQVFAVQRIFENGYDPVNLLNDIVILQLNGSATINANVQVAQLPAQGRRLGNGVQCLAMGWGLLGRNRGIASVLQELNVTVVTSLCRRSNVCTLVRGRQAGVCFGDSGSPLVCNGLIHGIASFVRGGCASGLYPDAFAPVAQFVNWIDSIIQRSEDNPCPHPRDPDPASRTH
Method: Human leukocyte elastase (HLE) (gift of R. Senior, Washington University) was dissolved in saline at 1 mg/ml and further diluted 1/20 in assay buffer (0.2 M Tris, pH 8.0) before use. 10 μl of test compound in DMSO (or DMSO alone), 100 μl of assay buffer and 50 μl of enzyme were added to 96 well plates, mixed and pre-incubated for 30 minutes at ambient temperature. Reaction was initiated by addition of 40 μl of 2.5 mM methoxysuccinyl-Ala-Ala-Pro-Val-p-nitroanilide (Sigma; 25 mM in DMSO diluted 1/10 in assay buffer before use). The increase in absorbance at 405 nm was monitored for 10 minutes with a Biotek EL340 plate reader.

[3] = @ 100 (concentration unit not given)
[4] = @ 10 (concentration unit not given)
[5] = @ 1 (concentration unit not given)

Row | Structure (SMILES) | pEC50 [1] | HLE, % @ concentration [2, 3] [% @ 100] | HLE, % @ concentration [2, 4] [% @ 10] | HLE, % @ concentration [2, 5] [% @ 1] | HLE, % @ concentration ([2]; @ 6 (concentration unit not given)) [% @ 6]
1 | Cc1c(NC(=O)OC(C)(C)C)ccc2nc(N[C@@H](C)c3ccccc3)oc(=O)c12 [Example 6m, 6-[[(1,1-Dimethylethoxy)carbonyl]amino]-5-methyl-2-[[(1S)-phenylethyl]amino]-4H-3,1-benzoxazin-4-one] | 4.30 | 82 |  |  | 
2 | Cc1c(N(C)C)ccc2nc(N[C@@H](Cc3ccccc3)C(=O)N(C)Cc3ccccc3)oc(=O)c12 [Example 16, αS-[[6-(Dimethylamino)-5-methyl-4-oxo-4H-3,1-benzoxazin-2-yl]amino]-N-methyl-N-(phenylmethyl) benzenepropanamide] | 4.77 |  | 59 |  | 
3 | Cc1c(NC(=O)c2ccco2)ccc2nc(N[C@@H](C)c3ccccc3)oc(=O)c12 [Example 11k, 6-[[(2-Furanyl)carbonyl]amino]-5-methyl-2-[[(1S)-phenylethyl]amino]-4H-3,1-benzoxazin-4-one] | 4.19 | 63 |  |  | 
4 | Cc1c(CNC(=O)OCc2ccccc2)ccc2nc(N[C@@H](Cc3ccccc3)C(=O)N(C)Cc3ccccc3)oc(=O)c12 [Example 9r, Phenylmethyl[[5-methyl-2-[[2-[methyl(phenylmethyl)amino]-2-oxo-1S-(phenylmethyl)ethyl]amino]-4-oxo-4H-3,1-benzoxazin-6-yl]methyl]carbamate] | 4.85 |  |  | 47 | 
5 | CCOC(=O)NCc1ccc2nc(N[C@@H](Cc3ccccc3)C(=O)N(C)Cc3ccccc3)oc(=O)c2c1C [Example 9k, Ethyl[[5-methyl-2-[[2-[methyl(phenylmethyl)amino]-2-oxo-1S-(phenylmethyl)ethyl]amino]-4-oxo-4H-3,1-benzoxazin-6-yl]methyl]carbamate] | 4.96 |  | 29 |  | 
6 | COc1ccc(C[C@H](Nc2nc3ccc(CNC(=O)NCc4ccccc4)c(C)c3c(=O)o2)C(=O)N(C)Cc2ccccc2)cc1 [Example 12j, 4-Methoxy-N-methyl-αS-[[5-methyl-4-oxo-6-[[[[(phenylmethyl)amino]carbonyl]amino]methyl]-4H-3,1-benzoxazin-2-yl]amino]-N-(phenylmethyl)benzenepropanamide] | 4.77 |  |  | 63 | 
7 | Cc1c(CNC(=O)N(C)c2ccccc2)ccc2nc(N[C@@H](Cc3ccccc3)C(=O)N(C)Cc3ccccc3)oc(=O)c12 [Example 12i, N-Methyl-αS-[[5-methyl-6-[[[(methylphenylamino)carbonyl]amino]methyl]-4-oxo-4H-3,1-benzoxazin-2-yl]amino]-N-(phenylmethyl)benzenepropanamide] | 5.22 |  |  | 47 | 
8 | COc1ccc(C[C@H](Nc2nc3ccc(CNC(=O)OC(C)(C)C)c(C)c3c(=O)o2)C(=O)N(C)c2ccccc2)cc1 [Example 7t, 1,1-Dimethylethyl[[2-[[1S-[(4-methoxyphenyl)methyl]-2-(methylphenylamino)-2-oxoethyl]amino]-5-methyl-4-oxo-4H-3,1-benzoxazin-6-yl]methyl]carbamate] | 4.74 |  | 20 |  | 
9 | COC(=O)[C@H](Cc1ccc(OC)cc1)Nc1nc2ccc(NC(=O)OC(C)(C)C)c(C)c2c(=O)o1 [Example 6c, N-[6-[[(1,1-Dimethylethoxy)carbonyl]amino]-5-methyl-4-oxo-4H-3,1-benzoxazin-2-yl]-O-methyl-L-tyrosine, methyl ester] | 4.23 | 29 |  |  | 
10 | Cc1c(NCc2ccccc2)ccc2nc(N[C@@H](Cc3ccccc3)C(=O)N(C)Cc3ccccc3)oc(=O)c12 [Example 17d, N-Methyl-αS-[[5-methyl-4-oxo-6-[(phenylmethyl)amino]-3,1-benzoxazin-2-yl]amino]-N-(phenylmethyl)benzenepropanamide] | 4.82 |  | 48 |  | 
11 | Cc1c(CNC(=O)CN2CCOCC2)cc(Br)c2nc(N[C@@H](Cc3ccccc3)C(=O)N(C)Cc3ccccc3)oc(=O)c12 [Example 15e, N-[[8-Bromo-5-methyl-2-[[2-[methyl(phenylmethyl)amino]-2-oxo-1S-(phenylmethyl)ethyl]amino]-4-oxo-4H-3,1-benzoxazin-6-yl]methyl]morpholine-4-acetamide] | 4.80 | 78 |  |  | 
12 | Cc1c(NC(=O)OC(C)(C)C)ccc2nc(N[C@@H](Cc3ccc(OCCN4CCCC4)cc3)C(=O)N(C)Cc3ccccc3)oc(=O)c12 [Example 6ff, 1,1-Dimethylethyl[5-methyl-2-[[2-[methyl(phenylmethyl)amino]-2-oxo-1S-[[4-[2-(1-pyrrolidinyl)ethoxy]phenyl]methyl]ethyl]amino]-4-oxo-4H-3,1-benzoxazin-6-yl]carbamate] | 4.30 | 75 |  |  | 
13 | COc1ccc(C[C@H](Nc2nc3ccc(NC(=O)c4ccccn4)c(C)c3c(=O)o2)C(=O)N(C)Cc2ccccc2)cc1 [Example 11p, N-[2-[[1S-[(4-Methoxyphenyl)methyl]-2-[-methyl(phenylmethyl)amino]-2-oxoethyl]amino]-5-methyl-4-oxo-4H-3,1-benzoxazin-6-yl]pyridine-2-carboxamide] | 5.07 |  | 40 |  | 
14 | COC(=O)C1(Nc2nc3ccc(NC(=O)OC(C)(C)C)c(C)c3c(=O)o2)CC1 [Example 6x, N-[6-[[(1,1-Dimethylethoxy)carbonyl]amino]-5-methyl-4-oxo-4H-3,1-benzoxazin-2-yl]-1-cyclopropanecarboxylic acid, methyl ester] | < 4.00 |  | 25 |  | 
15 | CCN(C(=O)[C@H](Cc1ccc(OC)cc1)Nc1nc2ccc(N(C)C)c(C)c2c(=O)o1)c1ccccc1 [Example 16b, αS-[[6-(Dimethylamino)-5-methyl-4-oxo-4H-3,1-benzoxazin-2-yl]amino]-N-ethyl-4-methoxy-N-phenylbenzenepropanamide] | 4.70 |  |  | 49 | 
16 | COC(=O)[C@H](Cc1ccccc1)Nc1nc2ccc(NC(=O)CCC(=O)O)c(C)c2c(=O)o1 [Example 11d, N-[6-[[(2-Carboxyethyl)carbonyl]amino]-5-methyl-4-oxo-4H-3,1-benzoxazin-2-yl]-L-phenylalanine, methyl ester] | < 4.00 | 76 |  |  | 
17 | COc1ccc(C[C@H](Nc2nc3ccc(N(C)C)c(C)c3c(=O)o2)C(=O)N(C)c2ccc(Cl)cc2)cc1 [Example 16c, N-(4-Chlorophenyl)-αS-[[6-(dimethylamino)-5-methyl-4-oxo-4H-3,1-benzoxazin-2-yl]amino]-4-methoxy-N-methylbenzenepropanamide] | 4.74 |  | 18 |  | 
18 | COc1ccc(C[C@H](Nc2nc3ccc(NC(=O)c4ccco4)c(C)c3c(=O)o2)C(=O)N(C)Cc2ccccc2)cc1 [Example 11u, N-[2-[[1S-[(4-Methoxyphenyl)methyl]-2-[methyl(phenylmethyl)amino]-2-oxoethyl]amino]-5-methyl-4-oxo-4H-3,1-benzoxazin-6-yl]furan-2-carboxamide] | 4.74 |  | 19 |  | 
19 | CCN(Cc1ccccc1)C(=O)[C@H](Cc1ccc(OC)cc1)Nc1nc2ccc(CNC(=O)OCc3ccccc3)c(C)c2c(=O)o1 [Example 9p, Phenylmethyl[[2-[[2-[ethyl(phenylmethyl)amino]-1S-[(4-methoxyphenyl)methyl]-2-oxoethyl]amino]-5-methyl-4-oxo-3,1-benzoxazin-6-yl]methyl]carbamate] | < 4.00 |  |  |  | 45
